Test results: paper PMC11303713, “Allosteric inhibition of CFTR gating by CFTRinh-172 binding in the pore” (Nature Communications, 2024)
“And” between values parts separate entries of the source, which are not always exact repeats. Equal entries are not always repeated. Where two headings read alike, the source gives them in different places.

Legend:
Assay in all cases: Inside-out patch-clamp inhibition of CFTR current by Inh-172
Type in all cases: cell-based
[1] = biological target: T1, p-hTMD1-p-CFTR (pig CFTR with human CFTR's TMD1) (Sus scrofa, UniProt Q6PQZ2, A115E/A228G/F12V/H39Q/I11V/I421T/I87F/K242R/K407E/L215I/L315F/L328I/M332I/N256S/N426D/P145L/S418N/S41P/S43V/S445N/T209A/V125I/V231I)
T1 construct: expressed in transfected cells; host or cells: CHO cells, pcDNA plasmid
Protocol: (§1) CHO cells were grown at 37 °C in Dulbecco’s modified Eagle’s medium supplemented with 10% (vol/vol) fetal bovine serum (Sigma-Aldrich, St. Louis, MO). pcDNA plasmids carrying the desired CFTR construct were transfected to CHO cells using PolyFect transfection reagent (Qiagen, Hilden, Germany) together with green fluorescence protein (GFP) cDNA (pEGFP-C3, Takara Bio, Shiga, Japan) that helps identify expression of CFTR. Cells were first incubated with the transfection reagents at 37 °C for 6-12 hours on sterile glass chips in 35-mm tissue culture dishes before transferred to 27 °C for incubation for 2–7 days. Primers for mutations were ordered from Integrated DNA Technologies (Coralville, IA) and were summarized in Supplementary Data. All CFTR mutants were prepared with QuikChange XL kit (Agilent, Santa Clara, CA) and sequenced at the DNA Core facility at University of Missouri-Columbia.
(§2) Patch-clamp pipettes were made from borosilicate capillary glass using a two-stage vertical puller (PP-81; Narishige, Amityville, NY). The pipette tips were fire polished with a homemade microforge to yield a pipette resistance of 2–5 MΩ when filled with a pipette solution containing (in mM): 140 NMDG-Cl (N-methyl-D-glucamine-chloride), 5 CaCl2, 2 MgCl2, and 10 HEPES, pH 7.4. For recordings, transfected cells on glass chips were transferred into a continuously perfused chamber on the stage of an inverted microscope (IX51; Olympus, Tokyo, Japan) with the perfusing solution containing (in mM): 150 NMDG-Cl, 2 MgCl2, 10 EGTA, 8 Tris, and 10 HEPES, pH 7.4. The membrane patch was excised to an inside-out configuration with a seal resistance >40 GΩ. CFTR currents were recorded with an amplifier (EPC9; HEKA, Holliston, MA), filtered through an eight-pole Bessel filter (LPF-8; Warner Instruments, Hamden, CT) at 100 Hz and digitized to a computer at a sampling rate of 500 Hz with Pulse software (version 8.53; HEKA). The membrane potential was held at −30 mV. Solution exchange was achieved by a fast solution change system (SF-77B; Warner Instruments). Inh-172 was obtained from the CFTR Chemical Compound Program supported by the Cystic Fibrosis Foundation. All experiments were performed at room temperature.
(§3) The steady state mean currents were measured in the Igor Pro software (version 8.0; WaveMetrics). The mean baseline currents were subtracted from the steady state mean currents before the data were used to determine the degrees of inhibition. The degrees of inhibition by CFTR inhibitor 172 were calculated based on the equation:1 %inhibition=1−IInh−172/I0X100% where I0 and Iinh−172 represent uninhibited and inhibited currents, respectively. The IC50 and Hill coefficients were obtained by fitting percent inhibition as a function of [Inh-172] with the Hill equation:2 %inhibition=base+(max−base)/1+xhalf/x^rate where max and base represent the […] percent inhibition by Inh-172, x represents the concentration of Inh-172, and the rate is the Hill coefficient. The estimated IC50 (xhalf) and Hill coefficients are listed in Table 1 as mean ± standard deviation. Each patch-clamp recording was made from a separate cell.

[2] = biological target: T2, p-hTMD2-p-CFTR (pig CFTR with human CFTR's TMD2) (Sus scrofa, UniProt Q6PQZ2, A1172T/A789T/A900R/A913S/C878S/C883W/D1186N/D1223E/D816E/DEL1175-1175/F1181T/G899S/G926T/H1036Q/I1057V/I806L/K1013Q/K886G/K887N/K898H/L1018V/L1029M/L930M/L932F/M795V/N1178T/P890L/Q1176K/Q1198S/R1179K/R831K/R951H/S1010A/S1184Y/S783N/S889P/T1129R/T790A/T843A/V1006I/V1222T/V1228I/V798A/V838M/V854I/V870I/V983I)
T2 construct: expressed in transfected cells; host or cells: CHO cells, pcDNA plasmid
Protocol: as §1, §2, §3

[3] = biological target: T3, T1142A-CFTR (Homo sapiens, UniProt P13569, T1142A)
T3 construct: expressed in transfected cells; host or cells: CHO cells, pcDNA plasmid
Protocol: as §1, §2, §3

[4] = 100 nM Inh-172, read-out: percent inhibition of current, Mean
[5] = 500 nM Inh-172, read-out: percent inhibition of current, Mean
[6] = 500 nM Inh-172, read-out: percent inhibition of current, individual cell
[7] = 1000 nM Inh-172, read-out: percent inhibition of current, Mean
[8] = 1000 nM Inh-172, read-out: percent inhibition of current, individual cell
[9] = 5000 nM Inh-172, read-out: percent inhibition of current, Mean
[10] = 5000 nM Inh-172, read-out: percent inhibition of current, individual cell
[11] = 10000 nM Inh-172, read-out: percent inhibition of current, Mean
[12] = 10000 nM Inh-172, read-out: percent inhibition of current, individual cell

T3 sequence (P13569 whole entry T1142A): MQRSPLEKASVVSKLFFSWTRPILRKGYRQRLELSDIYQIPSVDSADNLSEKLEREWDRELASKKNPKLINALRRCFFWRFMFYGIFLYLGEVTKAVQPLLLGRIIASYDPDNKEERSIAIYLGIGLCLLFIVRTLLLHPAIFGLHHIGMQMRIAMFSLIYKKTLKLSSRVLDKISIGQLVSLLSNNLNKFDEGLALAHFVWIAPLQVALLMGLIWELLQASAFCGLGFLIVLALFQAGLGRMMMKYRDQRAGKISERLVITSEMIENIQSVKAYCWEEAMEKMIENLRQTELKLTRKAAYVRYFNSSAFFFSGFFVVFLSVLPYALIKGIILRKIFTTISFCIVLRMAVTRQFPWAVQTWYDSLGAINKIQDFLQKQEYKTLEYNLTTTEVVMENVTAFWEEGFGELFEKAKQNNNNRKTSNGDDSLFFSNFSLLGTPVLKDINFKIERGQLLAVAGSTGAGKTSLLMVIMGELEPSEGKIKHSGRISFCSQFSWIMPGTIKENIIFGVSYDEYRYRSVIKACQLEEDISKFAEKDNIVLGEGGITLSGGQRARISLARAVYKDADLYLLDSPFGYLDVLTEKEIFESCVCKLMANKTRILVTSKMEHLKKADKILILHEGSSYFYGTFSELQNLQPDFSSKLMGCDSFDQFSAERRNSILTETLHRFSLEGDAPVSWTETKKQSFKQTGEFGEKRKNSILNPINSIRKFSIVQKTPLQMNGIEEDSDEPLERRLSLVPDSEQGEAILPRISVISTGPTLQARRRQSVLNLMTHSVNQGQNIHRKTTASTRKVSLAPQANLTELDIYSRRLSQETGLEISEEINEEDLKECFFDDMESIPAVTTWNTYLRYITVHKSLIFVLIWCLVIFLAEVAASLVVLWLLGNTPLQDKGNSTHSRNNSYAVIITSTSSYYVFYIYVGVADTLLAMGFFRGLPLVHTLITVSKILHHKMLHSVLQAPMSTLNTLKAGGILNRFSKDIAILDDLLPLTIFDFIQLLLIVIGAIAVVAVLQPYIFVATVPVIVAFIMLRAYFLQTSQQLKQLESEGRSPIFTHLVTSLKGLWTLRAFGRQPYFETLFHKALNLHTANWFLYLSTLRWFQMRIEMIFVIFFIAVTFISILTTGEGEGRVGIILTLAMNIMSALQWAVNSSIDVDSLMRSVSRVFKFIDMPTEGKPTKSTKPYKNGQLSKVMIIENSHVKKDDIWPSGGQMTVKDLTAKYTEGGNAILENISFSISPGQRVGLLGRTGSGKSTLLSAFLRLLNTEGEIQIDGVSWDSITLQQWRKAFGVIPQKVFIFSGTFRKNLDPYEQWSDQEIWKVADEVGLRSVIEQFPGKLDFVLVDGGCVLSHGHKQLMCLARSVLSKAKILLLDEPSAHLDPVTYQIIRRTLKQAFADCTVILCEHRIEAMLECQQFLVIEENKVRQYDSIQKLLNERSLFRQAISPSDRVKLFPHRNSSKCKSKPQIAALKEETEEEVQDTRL
T1 sequence (Q6PQZ2 1-1482 with the stated changes): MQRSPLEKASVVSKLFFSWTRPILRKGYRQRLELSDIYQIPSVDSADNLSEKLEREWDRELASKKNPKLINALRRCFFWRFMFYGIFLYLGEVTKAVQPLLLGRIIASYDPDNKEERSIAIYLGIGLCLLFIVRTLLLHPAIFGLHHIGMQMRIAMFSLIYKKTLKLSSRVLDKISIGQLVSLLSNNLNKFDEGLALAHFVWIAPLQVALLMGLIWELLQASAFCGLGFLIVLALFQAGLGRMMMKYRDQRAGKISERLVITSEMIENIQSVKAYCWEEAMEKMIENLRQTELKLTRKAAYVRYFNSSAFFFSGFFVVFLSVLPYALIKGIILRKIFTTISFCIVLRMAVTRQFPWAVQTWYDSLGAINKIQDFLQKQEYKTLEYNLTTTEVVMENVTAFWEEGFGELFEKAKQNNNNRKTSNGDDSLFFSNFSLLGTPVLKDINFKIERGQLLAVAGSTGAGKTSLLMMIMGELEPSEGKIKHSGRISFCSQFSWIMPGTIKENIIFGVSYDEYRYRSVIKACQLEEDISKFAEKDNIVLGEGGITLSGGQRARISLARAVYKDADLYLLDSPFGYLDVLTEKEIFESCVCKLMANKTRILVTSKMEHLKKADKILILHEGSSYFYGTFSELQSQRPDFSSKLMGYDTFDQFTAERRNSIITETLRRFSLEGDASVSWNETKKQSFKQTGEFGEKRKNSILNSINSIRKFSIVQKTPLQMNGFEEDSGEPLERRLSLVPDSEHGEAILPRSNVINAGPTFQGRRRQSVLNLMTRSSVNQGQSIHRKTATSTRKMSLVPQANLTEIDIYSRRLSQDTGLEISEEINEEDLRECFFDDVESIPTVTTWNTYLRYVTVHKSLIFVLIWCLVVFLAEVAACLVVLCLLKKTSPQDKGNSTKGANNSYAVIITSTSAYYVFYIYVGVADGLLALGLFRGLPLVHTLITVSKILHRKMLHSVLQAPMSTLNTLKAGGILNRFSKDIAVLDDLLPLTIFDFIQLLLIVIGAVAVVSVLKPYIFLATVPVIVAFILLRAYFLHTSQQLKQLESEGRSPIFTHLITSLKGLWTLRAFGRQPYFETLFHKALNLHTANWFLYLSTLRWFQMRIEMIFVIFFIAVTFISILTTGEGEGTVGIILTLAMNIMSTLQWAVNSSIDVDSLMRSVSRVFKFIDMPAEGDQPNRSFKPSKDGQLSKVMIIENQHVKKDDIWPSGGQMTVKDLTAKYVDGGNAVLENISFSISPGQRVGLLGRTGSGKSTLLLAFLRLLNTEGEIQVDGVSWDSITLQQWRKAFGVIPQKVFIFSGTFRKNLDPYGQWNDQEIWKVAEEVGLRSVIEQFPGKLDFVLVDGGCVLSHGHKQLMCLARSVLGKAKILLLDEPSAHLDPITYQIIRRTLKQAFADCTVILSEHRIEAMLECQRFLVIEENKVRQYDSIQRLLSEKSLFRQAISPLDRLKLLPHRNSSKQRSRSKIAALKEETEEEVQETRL
T2 sequence (Q6PQZ2 with tags, fused parts or gaps with the stated changes): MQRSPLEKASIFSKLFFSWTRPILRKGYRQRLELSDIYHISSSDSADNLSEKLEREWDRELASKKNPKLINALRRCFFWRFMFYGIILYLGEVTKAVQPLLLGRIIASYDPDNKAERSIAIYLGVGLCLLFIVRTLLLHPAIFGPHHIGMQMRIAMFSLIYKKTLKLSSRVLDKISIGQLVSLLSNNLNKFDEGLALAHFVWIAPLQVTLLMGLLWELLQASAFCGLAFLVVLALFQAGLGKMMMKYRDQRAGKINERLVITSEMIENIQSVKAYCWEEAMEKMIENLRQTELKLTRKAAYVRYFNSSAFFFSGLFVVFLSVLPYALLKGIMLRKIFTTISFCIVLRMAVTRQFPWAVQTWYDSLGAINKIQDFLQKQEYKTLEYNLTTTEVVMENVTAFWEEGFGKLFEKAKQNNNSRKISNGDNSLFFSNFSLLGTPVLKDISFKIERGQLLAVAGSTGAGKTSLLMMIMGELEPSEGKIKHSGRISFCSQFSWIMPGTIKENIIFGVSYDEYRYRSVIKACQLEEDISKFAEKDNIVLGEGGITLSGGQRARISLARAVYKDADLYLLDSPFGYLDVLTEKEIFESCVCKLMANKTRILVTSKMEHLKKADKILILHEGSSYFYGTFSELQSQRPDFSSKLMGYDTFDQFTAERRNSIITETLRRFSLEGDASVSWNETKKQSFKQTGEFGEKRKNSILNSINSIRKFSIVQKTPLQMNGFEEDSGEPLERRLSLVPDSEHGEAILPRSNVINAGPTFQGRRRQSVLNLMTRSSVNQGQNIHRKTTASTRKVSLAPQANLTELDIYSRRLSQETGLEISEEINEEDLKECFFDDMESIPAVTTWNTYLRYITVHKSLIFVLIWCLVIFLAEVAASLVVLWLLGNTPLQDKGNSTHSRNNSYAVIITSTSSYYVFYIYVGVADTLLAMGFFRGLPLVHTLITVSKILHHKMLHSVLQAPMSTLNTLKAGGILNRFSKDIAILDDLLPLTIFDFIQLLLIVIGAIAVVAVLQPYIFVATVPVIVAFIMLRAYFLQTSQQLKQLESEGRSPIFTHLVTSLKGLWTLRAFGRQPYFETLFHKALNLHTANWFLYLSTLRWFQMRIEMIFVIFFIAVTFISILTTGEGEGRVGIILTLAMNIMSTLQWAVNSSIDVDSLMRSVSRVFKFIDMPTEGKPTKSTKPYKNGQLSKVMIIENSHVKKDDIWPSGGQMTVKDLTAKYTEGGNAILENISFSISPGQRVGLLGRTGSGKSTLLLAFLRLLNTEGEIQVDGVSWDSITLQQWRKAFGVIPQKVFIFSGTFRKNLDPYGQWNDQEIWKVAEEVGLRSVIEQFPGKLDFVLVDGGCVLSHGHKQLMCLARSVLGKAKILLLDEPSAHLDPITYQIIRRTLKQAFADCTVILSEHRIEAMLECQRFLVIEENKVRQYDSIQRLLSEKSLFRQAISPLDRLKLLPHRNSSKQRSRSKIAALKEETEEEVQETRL

For O=C(O)c1ccc(/C=C2\SC(=S)N(c3cccc(C(F)(F)F)c3)C2=O)cc1 [Inh-172, CFTRinh-172], the “percent inhibition of current, individual cell” value (shortened to “percent inhibition of current”) ([1]; 100 nM Inh-172) was 4 and 3 and 1, the inhibition at 0.1 µM [1, 4] was 2.7% and the “percent inhibition of current” value ([1]; 500 nM Inh-172) was 17 and 15. The inhibition at 0.5 µM [1, 5] was 17.3%, the inhibition at 0.5 µM [1, 6] was 20% and the “percent inhibition of current” value ([1]; 1000 nM Inh-172) was 30 and 24. For the same compound, the inhibition at 1 µM [1, 7] was 32%, the inhibition at 1 µM [1, 8] was 42% and the “percent inhibition of current” value ([1]; 5000 nM Inh-172) was 67 and 68. For the same compound, the inhibition at 5 µM [1, 9] was 68.7%, the inhibition at 5 µM [1, 10] was 71% and the “percent inhibition of current” value ([1]; 10000 nM Inh-172) was 83 and 81. The inhibition at 10 µM [1, 11] was 83.3%, the inhibition at 10 µM [1, 12] was 86% and the “Hill Coefficient” value ([1]; p-hTMD1-p) was 1.03 ± 0.03. For the same compound, the IC50 ([1]; p-hTMD1-p) was 2210 ± 70 nM, the “percent inhibition of current” value ([2]; 50 nM Inh-172) was 48.0 and 39.0 and the inhibition at 0.05 µM ([2]; 50 nM Inh-172, read-out: percent inhibition of current, Mean) was 46.3%. The inhibition at 0.05 µM ([2]; 50 nM Inh-172, read-out: percent inhibition of current, individual cell) was 52%, the “percent inhibition of current” value ([2]; 100 nM Inh-172) was 60.0 and 64.0 and 67.0 and 62.0 and 55.0 and the inhibition at 0.1 µM [2, 4] was 63.6%. For the same compound, the inhibition at 0.1 µM ([2]; 100 nM Inh-172, read-out: percent inhibition of current, individual cell) was 75%, the “percent inhibition of current” value ([2]; 500 nM Inh-172) was 71.0 and 78.0 and 69.0 and 61.0 and the inhibition at 0.5 µM [2, 5] was 72%. The inhibition at 0.5 µM [2, 6] was 81%, the “percent inhibition of current” value ([2]; 1000 nM Inh-172) was 84.0 and the inhibition at 1 µM [2, 7] was 79.8%. The inhibition at 1 µM [2, 8] was 85%, the “percent inhibition of current” value ([2]; 5000 nM Inh-172) was 97.0 and 95.0 and the inhibition at 5 µM [2, 9] was 96%. For the same compound, the inhibition at 5 µM [2, 10] was 96%, the “percent inhibition of current” value ([2]; 10000 nM Inh-172) was 98.0 and 100.0 and 90.0 and 93.0 and 91.0 and the inhibition at 10 µM [2, 11] was 95.6%. For the same compound, the inhibition at 10 µM [2, 12] was 99%, the “Hill Coefficient” value ([2]; p-hTMD2-p) was 0.54 ± 0.08 and the IC50 ([2]; p-hTMD2-p) was 60 ± 20 nM. For the same compound, the IC50 ([2]; pig CFTR with human TMD2, earlier manuscript version, peer review file) was 55 nM, the “percent inhibition of current” value ([3]; 100 nM Inh-172) was 28.0 and 24.0 and 52.0 and 14.0 and 42.0 and the inhibition at 0.1 µM [3, 4] was 31.3%. The “percent inhibition of current” value ([3]; 500 nM Inh-172) was 61.0 and 67.0 and 78.0 and 44.0 and 66.0, the inhibition at 0.5 µM [3, 5] was 63.2% and the “percent inhibition of current” value ([3]; 1000 nM Inh-172) was 74.0 and 70.0 and 87.0 and 60.0 and 78.0. For the same compound, the inhibition at 1 µM [3, 7] was 73.8%, the “percent inhibition of current” value ([3]; 5000 nM Inh-172) was 93.0 and 96.0 and 84.0 and the inhibition at 5 µM [3, 9] was 91.2%. The inhibition at 5 µM [3, 10] was 90%, the “percent inhibition of current” value ([3]; 10000 nM Inh-172) was 98.0 and 92.0 and the inhibition at 10 µM [3, 11] was 96.2%. For the same compound, the inhibition at 10 µM [3, 12] was 97%, the “Hill Coefficient” value ([3]; T1142A) was 0.81 ± 0.02 and the IC50 ([3]; T1142A) was 270 ± 10 nM.
